Test results reported in patent publication US10913787B2, “Method of identifying musk compounds” (Firmenich SA, priority 2015, dated 2021).

Tests used:
[1] = tested on: mouse Olfr96; assay: cell-based cAMP HTRF dose-response assay, tagged mouse Olfr96 in HEK293T cells
Source text: (§1) In a further embodiment, to complete the deorphanization process, the candidate OR genes are further expressed in vitro for confirmation of activity against the compounds used to isolate the olfactory sensory neurons and other structurally-related compounds of interest. The mouse receptors identified from isolated olfactory neurons that respond to both Musk compounds are modified at their N-terminus with short polypeptide sequences (e.g., Flag (SEQ ID NO: 6), Rho (SEQ ID NO: 8; 20 first amino acids of the bovine rhodopsin receptor), or Lucy (SEQ ID NO: 10) tags), transiently expressed in HEK 293T cells, and stimulated separately with Musk compounds to confirm their identity as bona fide Musk compound receptors. Co-expression of the human G alpha subunit Gαolf in this cell-based assay activates the Gs transduction pathway that leads to an internal cAMP increase upon binding to the appropriate ligand. Alternatively, co-expression of the human G alpha subunit Gals in the cell based assay activates the Gq transduction pathway that leads to an internal Ca^2+ increase upon binding to the appropriate ligand. The above process and the results obtained so far serve to validate the process for rapid and reliable identification of mammalian odorant receptors for Musk compounds.
Functional dose-response experiments were performed to evaluate the level of functional activity of the modified cell line. Using a cell-based assay, mouse Olfr96 was tested in an HEK293T cell line wherein the endogenous RTP1 gene has been activated and the odorant receptor chaperone was expressed. Flag-Rho-tagged receptor genes were co-transfected with the olfactory canonical G-protein Goff gene and were exposed to increasing concentrations of the Musk odorants Tonalide, Vulcanolide, and Muscone. Odorant-induced activity was detected by measuring the cAMP increase in the cytosol using an HTRF based kit (CisBio, cAMP dynamic 2 kit, 62AM4PEJ). […] In an additional repeat experiment using the same conditions, mouse Olfr96 and corresponding human ortholog OR11A1 were tested side by side in duplicate with a musk diversity set for specificity assessment.

[2] = molecular target: T1, human ortholog OR11A1 (Homo sapiens, UniProt Q9GZK7); assay: cell-based cAMP HTRF dose-response assay, tagged human OR11A1 in HEK293T cells; conditions: Lucy-Flag-Rho-tagged receptor, in duplicate, musk diversity set, FIG. 3
T1 construct: expressed in transfected cells
T1 sequence (Q9GZK7 1-315): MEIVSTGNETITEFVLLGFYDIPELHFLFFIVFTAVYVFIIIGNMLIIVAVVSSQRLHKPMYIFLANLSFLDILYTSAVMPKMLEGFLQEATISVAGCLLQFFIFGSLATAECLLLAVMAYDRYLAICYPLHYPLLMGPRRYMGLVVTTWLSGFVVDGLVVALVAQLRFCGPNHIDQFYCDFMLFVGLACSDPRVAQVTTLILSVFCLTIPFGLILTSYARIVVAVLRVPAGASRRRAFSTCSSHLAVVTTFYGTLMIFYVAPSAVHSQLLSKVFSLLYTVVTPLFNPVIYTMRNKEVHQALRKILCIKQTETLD
Source text: as §1, with “The above process and the results obtained so far serve to validate the process for rapid and reliable identification of mammalian odorant receptors for Musk compounds.” left out
Functional dose-response experiments were performed to evaluate the level of functional activity of the modified cell line. […] Odorant-induced activity was detected by measuring the cAMP increase in the cytosol using an HTRF based kit (CisBio, cAMP dynamic 2 kit, 62AM4PEJ). […]

[3] = repeat experiment, Lucy-Flag-Rho-tagged receptor, HEK293T, in duplicate, musk diversity set, FIG. 3
[4] = Flag-Rho-tagged receptor, HEK293T with activated RTP1, increasing concentrations of odorant, FIG. 2

With `CC1C(C)(C)C2=C(C(=O)CCC2)C1(C)C` (stereo not shown) [Cashmeran] the “dose-dependent increase of Olfr96 receptor activity (cAMP increase in the cytosol)” value [1, 3] was “dose-dependent increase”.
In the case of `Cc1c([N+](=O)[O-])c(C)c([N+](=O)[O-])c(C(C)(C)C)c1[N+](=O)[O-]` [Musk X], the “dose-dependent increase of Olfr96 receptor activity (cAMP increase in the cytosol)” value [1, 3] is reported as “dose-dependent increase”.
With `CC(=O)c1cc2c(cc1C)C(C)(C)C(C)CC2(C)C` (stereo not shown) [Tonalide] the “dose-dependent increase of Olfr96 receptor activity (cAMP increase in the cytosol)” value [1, 4] was “dose-dependent increase” and the “dose-dependent increase of Olfr96 receptor activity (cAMP increase in the cytosol)” value [1, 3] was “dose-dependent increase”.
`Cc1cc2c(cc1C=O)C(C)(C)[C@@H](C)[C@H](C)C2(C)C` [Vulcanolide] was tested, and the “dose-dependent increase of Olfr96 receptor activity (cAMP increase in the cytosol)” value [1, 4] was “dose-dependent increase”, the “dose-dependent increase of Olfr96 receptor activity (cAMP increase in the cytosol)” value [1, 3] was “dose-dependent increase” and the “dose-dependent increase of OR11A1 receptor activity (cAMP increase in the cytosol)” value [2] was “dose-dependent increase”.
